# Values of other authors, collected in patent US20070025948A1, “Dilution-type sterilizer composition” (Dainippon Sumitomo Pharma Co. Ltd, priority 2003, published 2007).
# Structures can show the parent of a compound that is named as a salt. Where two headings read alike, the source gives them in different places.
# Legend:
# [1] = hydrophilic-lipophilic balance, from new Surfactant Handbook
# [2] = 20° C.
SMILES,solubility in water [2],HLB [1],further results
CCCCCCCCCCCCCCCCCC(=O)[O-].[Na+] [sodium stearate],–,18,–
[H]/N=C(\N/C(=N/[H])NCCCCCCNC(=N)NC(=N)Nc1ccc(Cl)cc1)Nc1ccc(Cl)cc1 [chlorhexidine hydrochloride],–,–,solubility in water ([2]; hydrochloride): 0.06 w/v %
CCCCCCCCCCCCOS(=O)(=O)[O-].[Na+] [sodium lauryl sulfate],–,~40,–

# Second part, led by results:
solubility in water [2],SMILES,HLB [1],further results
0.08 w/v %,[H]/N=C(\N/C(=N/[H])NCCCCCCNC(=N)NC(=N)Nc1ccc(Cl)cc1)Nc1ccc(Cl)cc1 [Chlorhexidine],–,–
not less than 50 w/v %,[H]/N=C(\N/C(=N/[H])NCCCCCCNC(=N)NC(=N)Nc1ccc(Cl)cc1)Nc1ccc(Cl)cc1 [chlorhexidine gluconate],–,–
